# In US5444085A, “Methods of inhibiting HIV and inhibiting the activation of HIV” (Warner-Lambert Company, priority 1994, dated 1995):
# B1: interferon Y: interferon Y (protein, UniProt P01579 24-161, looked up)
# Interferon gamma: QDPYVKEAENLKKYFNAGHSDVADNGTLFLGILKNWKEESDRKIMQSQIVSFYFKLFKNFKDDQSIQKSVETIKEDMNVKFFNSNKKKRDDFEKLTNYSVTDLNVQRKAIHELIQVMAELSPAAKTGKRKRSQMLFRG
# Experiments:
# [1] = tested on: OM-10.1 cells (HIV-1 activation); settings: poster Nov. 3-7 1991; cited from earlier work
# [2] = tested on: HIV-infected cells; settings: Hamamoto et al. 1989; cited from earlier work
# [3] = tested on: OM-10.1 cells; test: Return to latency of TNF-α pre-activated OM-10.1 cells, percent CD4-positive cells by flow cytometry (Example 2); type: cell-based
# Experimental: Moreover, in Example 2 the experiment was extended through 96 hours after the removal of TNF-α.
# [4] = tested on: OM-10.1 cells (HIV-1 activation); test: Supernatant reverse transcriptase activity / HIV-1 activation in OM-10.1 cultures pretreated with test compound then TNF-α induced (Example 1); type: cell-based; settings: for stimulation index (SI) value of the reverse transcriptase activity: TNF-α treated vs non-TNF-α medium culture
# Excerpt: The cellular pathways involved in mediating the activating signal from the plasma membrane to the integrated virus, resulting in HIV-1 expression, are much less clear. Recently, the development of a reliable and simple system for evaluating compounds that could prevent activation of latent HIV was reported at the National […] (NCDDG)/AIDS by P. Feorino, S. T. Butera, T. M. Folks, and R. F. Schinazi, San Diego, Calif., Nov. 3-7, 1991. […] The expression of CD4+ on the cell surface and the activity of reverse transcriptase are used as markers for quantitating viral expression. Alternatively, other HIV markers, such as protease activity, which are known to those of skill in the art can be used. OM-10.1 cells remain CD4^+ until viral activation and respond to tumor necrosis factor induction, and therefore, these cultures are used to conveniently and rapidly examine pharmacologics for an ability to prevent CD4^+ down modulation (decrease in expression of CD4^+ on the cell surface) and HIV-1 expression.
# Example 1 was performed as described by Butera ST, et al., J. Virol. 1991;65:4645-4653. Test compounds were first dissolved in 100% DMSO to the indicated stock concentrations below in Table I. The stock solution was then diluted in tissue culture starting at 1:100(10/-2) and proceeding on as indicated.
# OM-10.1 cells were then pretreated for 4 hours with the test compounds prior to TNF-α induction. TNF-α was added at 20 U/ml and induced cells were examined at 24 hours for evidence of surface CD4 down-modulation, as an indication of viral activation. Cells were also harvested after 24 hours of TNF-α induction for drug toxicity, being labeled with ^3 H thymidine during the final 18 hours in culture. At […], cell-free culture supernatant was collected for reverse transcriptase determination, as a further verification of the extent of HIV-1 activation. CD4 surface staining for flow cytometry and reverse transcriptase analysis were performed as described.
molecule,measurement,setting,value
CC(=O)N(O)CCCCCNC(=O)CCC(=O)N(O)CCCCCNC(=O)CCC(=O)N(O)CCCCCN [desferrioxamine],inhibition of the activation of HIV-1,[1],modest inhibitors of the activation of HIV-1
CCCCCCCCCCCCCC(=O)O[C@@H]1[C@@H](C)[C@@]2(O)[C@@H](C=C(CO)C[C@]3(O)C(=O)C(C)=C[C@@H]23)[C@@H]2C(C)(C)[C@]12OC(C)=O [12-O-tetradecanoyl-phorbol-13-acetate],CD4 down regulation and viral expression,[2],mediates CD4 down regulation and viral expression in HIV-infected cells
"COc1ccc2c(c1)c(OC(C)C)c(C(N)=O)[s+]2[O-] (stereo not drawn) [Test Compound B, 5-methoxy-3-(1-methylethoxy)benzothiophene-2-carboxamide-, 1-oxide]",percent CD4-positive cells,"[3]; 0.5 μM, 24 hours",5.3%
same,percent CD4-positive cells,"[3]; 0.5 μM, 48 hours",20.6%
same,percent CD4-positive cells,"[3]; 0.5 μM, 72 hours",47.9%
same,percent CD4-positive cells,"[3]; 0.5 μM, 96 hours",75.1%
same,percent CD4-positive cells,"[3]; 0.5 μM, T-0 (after 24 hours TNF-α, before compound)",4.0%
same,percent CD4-positive cells,"[3]; 0.5 μM, T-24 (baseline, before TNF-α and compound)",89.0%
same,percent CD4-positive cells,"[3]; 10 μM, 24 hours",33.5%
same,percent CD4-positive cells,"[3]; 10 μM, 48 hours",96.5%
same,percent CD4-positive cells,"[3]; 10 μM, 72 hours",97.6%
same,percent CD4-positive cells,"[3]; 10 μM, 96 hours",98.7%
same,percent CD4-positive cells,"[3]; 10 μM, T-0 (after 24 hours TNF-α, before compound)",4.0%
same,percent CD4-positive cells,"[3]; 10 μM, T-24 (baseline, before TNF-α and compound)",89.0%
same,inhibition at 0.035 µM,"[4]; Human immunodeficiency virus 1, dilution 1:10 6 (A 19.5 nM; B 35.0 nM), TNF-α 20 U/ml, read-out: percent inhibition of the reverse transcriptase activity",0%
same,inhibition at 17.75 µM,"[4]; Human immunodeficiency virus 1, dilution 1:2000 (A 10.0 μM; B 17.75 μM), TNF-α 20 U/ml, read-out: percent inhibition of the reverse transcriptase activity",72.9%
same,inhibition at 8.88 µM,"[4]; Human immunodeficiency virus 1, dilution 1:4000 (A 5.0 μM; B 8.88 μM), TNF-α 20 U/ml, read-out: percent inhibition of the reverse transcriptase activity",44%
same,inhibition at 4.44 µM,"[4]; Human immunodeficiency virus 1, dilution 1:8000 (A 2.5 μM; B 4.44 μM), TNF-α 20 U/ml, read-out: percent inhibition of the reverse transcriptase activity",26.4%
same,inhibition at 2.22 µM,"[4]; Human immunodeficiency virus 1, dilution 1:16,000 (A 1.25 μM; B 2.22 μM), TNF-α 20 U/ml, read-out: percent inhibition of the reverse transcriptase activity",18.2%
same,inhibition at 1.11 µM,"[4]; Human immunodeficiency virus 1, dilution 1:32,000 (A 0.62 μM; B 1.11 μM), TNF-α 20 U/ml, read-out: percent inhibition of the reverse transcriptase activity",19.6%
same,inhibition at 0.55 µM,"[4]; Human immunodeficiency virus 1, dilution 1:64,000 (A 0.31 μM; B 0.55 μM), TNF-α 20 U/ml, read-out: percent inhibition of the reverse transcriptase activity",0.68%
same,inhibition at 0.28 µM,"[4]; Human immunodeficiency virus 1, dilution 1:128,000 (A 0.16 μM; B 0.28 μM), TNF-α 20 U/ml, read-out: percent inhibition of the reverse transcriptase activity",3.67%
same,inhibition at 0.14 µM,"[4]; Human immunodeficiency virus 1, dilution 1:256,000 (A 78.0 nM; B 0.14 μM), TNF-α 20 U/ml, read-out: percent inhibition of the reverse transcriptase activity",11.5%
same,inhibition at 0.07 µM,"[4]; Human immunodeficiency virus 1, dilution 1:512,000 (A 39.0 nM; B 70.0 nM), TNF-α 20 U/ml, read-out: percent inhibition of the reverse transcriptase activity",1.55%
same,anti-induction activity in the OM-10.1 cell system,[4]; TNF-α induced,appeared to have anti-induction activity
same,inhibition of HIV-1 activation,[4]; concentrations between 10 and 1 μM,effective at substantially inhibiting HIV-1 activation
same,mean reverse transcriptase cpm values,"[4]; dilution 1:10 6 (A 19.5 nM; B 35.0 nM), TNF-α 20 U/ml","30,025 cpm"
same,stimulation index (SI) value of the reverse transcriptase activity,[4]; dilution 1:10 6 (A 19.5 nM; B 35.0 nM),8.28
same,mean reverse transcriptase cpm values,"[4]; dilution 1:2000 (A 10.0 μM; B 17.75 μM), TNF-α 20 U/ml","7,725 cpm"
same,stimulation index (SI) value of the reverse transcriptase activity,[4]; dilution 1:2000 (A 10.0 μM; B 17.75 μM),2.13
same,mean reverse transcriptase cpm values,"[4]; dilution 1:4000 (A 5.0 μM; B 8.88 μM), TNF-α 20 U/ml","15,984 cpm"
same,stimulation index (SI) value of the reverse transcriptase activity,[4]; dilution 1:4000 (A 5.0 μM; B 8.88 μM),4.41
same,mean reverse transcriptase cpm values,"[4]; dilution 1:8000 (A […]; B 4.44 μM), TNF-α 20 U/ml","21,009 cpm"
same,stimulation index (SI) value of the reverse transcriptase activity,[4]; dilution 1:8000 (A […]; B 4.44 μM),5.80
same,mean reverse transcriptase cpm values,"[4]; dilution 1:16,000 (A 1.25 μM; B 2.22 μM), TNF-α 20 U/ml","23,336 cpm"
same,stimulation index (SI) value of the reverse transcriptase activity,"[4]; dilution 1:16,000 (A 1.25 μM; B 2.22 μM)",6.44
same,mean reverse transcriptase cpm values,"[4]; dilution 1:32,000 (A 0.62 μM; B 1.11 μM), TNF-α 20 U/ml","22,931 cpm"
same,stimulation index (SI) value of the reverse transcriptase activity,"[4]; dilution 1:32,000 (A 0.62 μM; B 1.11 μM)",6.33
same,mean reverse transcriptase cpm values,"[4]; dilution 1:64,000 (A 0.31 μM; B 0.55 μM), TNF-α 20 U/ml","28,334 cpm"
same,stimulation index (SI) value of the reverse transcriptase activity,"[4]; dilution 1:64,000 (A 0.31 μM; B 0.55 μM)",7.82
same,mean reverse transcriptase cpm values,"[4]; dilution 1:128,000 (A 0.16 μM; B 0.28 μM), TNF-α 20 U/ml","27,480 cpm"
same,stimulation index (SI) value of the reverse transcriptase activity,"[4]; dilution 1:128,000 (A 0.16 μM; B 0.28 μM)",7.58
same,mean reverse transcriptase cpm values,"[4]; dilution 1:256,000 (A 78.0 nM; B 0.14 μM), TNF-α 20 U/ml","25,257 cpm"
same,stimulation index (SI) value of the reverse transcriptase activity,"[4]; dilution 1:256,000 (A 78.0 nM; B 0.14 μM)",6.97
same,mean reverse transcriptase cpm values,"[4]; dilution 1:512,000 (A 39.0 nM; B 70.0 nM), TNF-α 20 U/ml","28,085 cpm"
same,stimulation index (SI) value of the reverse transcriptase activity,"[4]; dilution 1:512,000 (A 39.0 nM; B 70.0 nM)",7.75
"Cc1cn([C@H]2C[C@H](F)[C@@H](CO)O2)c(=O)[nH]c1=O [3'-fluoro-3'-deoxythymidine (FLT), 3'-fluoro-3'-deoxythymidine]",inhibition of the activation of HIV-1,[1],modest inhibitors of the activation of HIV-1
B1,inhibition of the activation of HIV-1,[1],modest inhibitors of the activation of HIV-1
